# Target: T1, PDE4B2 (Homo sapiens, UniProt Q07343)
# T1 construct: purchased BPS bioscience 60042
# Assay: Inhibitory effect on PDE4 enzyme (AMP-Glo Assay kit), PDE4B2
# Assay type: biochemical
# Conditions: cAMP substrate, 60 minutes at room temperature, AMP-Glo detection
# Source text: PDE4 enzyme can hydrolyze cAMP to produce AMP. The synthetic PDE4 enzyme inhibitor act together with PDE4 enzyme and the substrate cAMP for a certain period of time, and then the AMP-Glo™ Assay kit was used for detection. The detection is divided into two steps: first, converting the AMP produced in the reaction into ADP, and second, converting ADP into ATP. ATP binds to the reagent and emits […]. The fluorescence value is detected using an […]. IC50 value of the PDE4 enzyme inhibitor was calculated by plotting a graph with the […] values. The specific details are as follows:
# The compound plate was centrifuged at 1000 rpm for 1 minute.
# % Inhibition={1−(Average RLU of the compound−Average RLU of the positive control of the whole plate)/(Average RLU of the negative control of the whole plate−Average RLU of the positive control of the whole plate)}
# The IC50 is calculated by fitting the % inhibition values and the logarithm of the compound concentration to a non-linear regression (dose response-variable slope) using Graphpad 8.0.
# T1 sequence (Q07343 1-564 isoform Q07343-2): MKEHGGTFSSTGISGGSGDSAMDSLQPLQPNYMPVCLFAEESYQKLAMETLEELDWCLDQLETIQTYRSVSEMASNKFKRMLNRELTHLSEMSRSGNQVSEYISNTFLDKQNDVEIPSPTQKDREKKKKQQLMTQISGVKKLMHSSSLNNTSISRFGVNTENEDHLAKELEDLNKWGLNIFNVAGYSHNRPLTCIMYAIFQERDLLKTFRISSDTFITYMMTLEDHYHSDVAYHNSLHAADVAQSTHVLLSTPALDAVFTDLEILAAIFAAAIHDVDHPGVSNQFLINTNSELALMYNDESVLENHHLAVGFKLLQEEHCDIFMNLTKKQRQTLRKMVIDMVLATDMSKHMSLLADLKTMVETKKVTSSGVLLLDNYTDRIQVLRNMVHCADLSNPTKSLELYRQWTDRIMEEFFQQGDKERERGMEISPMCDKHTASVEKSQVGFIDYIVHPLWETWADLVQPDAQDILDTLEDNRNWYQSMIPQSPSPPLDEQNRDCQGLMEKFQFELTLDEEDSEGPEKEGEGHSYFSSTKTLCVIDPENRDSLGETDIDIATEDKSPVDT
row,SMILES,IC50 [nM]
1,"Cc1cc(C(F)(F)F)c(CNc2nc(N3CCc4oc(-c5ccc(F)cc5)nc4C3)nc3c2[S@+]([O-])CC3)c(=O)[nH]1 [Example 17, (R)-3-(((2-(2-(4-fluorophenyl)-6,7-dihydrooxazolo[4,5-c]pyridin-5(4H)-yl)-5-oxido-6,7-dihydrothieno[3,2-d]pyrimidin-4-yl)amino)methyl)-6-methyl-4-(trifluoromethyl)pyridin-2(1H)-one]",8.9
2,"[O-][S@+]1CCc2nc(N3CCc4oc(C5CCCCC5)nc4C3)nc(NC3(CO)CCC3)c21 [Example 5, (R)-2-(2-cyclohexyl-6,7-dihydrooxazolo[4,5-c]pyridin-5(4H)-yl)-4-((1-(hydroxymethyl)cyclobutyl)amino)-6,7-dihydrothieno[3,2-d]pyrimidine 5-oxide]",0.93

# Compounds with a lower IC50, results first:
row,IC50 [nM],SMILES
1,0.5,"COc1nc(C)cc(C)c1CNc1nc(N2CCc3oc(-c4ccc(F)cc4)nc3C2)nc2c1[S@+]([O-])CC2 [Example 18, (R)-2-(2-(4-fluorophenyl)-6,7-dihydrooxazolo[4,5-c]pyridin-5(4H)-yl)-4-(((2-methoxy-4,6-dimethylpyridin-3-yl)methyl)amino)-6,7-dihydrothieno[3,2-d]pyrimidine 5-oxide]"
2,0.63,"[O-][S@+]1CCc2nc(N3CCc4c(cnn4-c4ccccc4)C3)nc(NC3(CO)CCC3)c21 [Example 12, (R)-4-((1-(hydroxymethyl)cyclobutyl)amino)-2-(1-phenyl-1,4,6,7-tetrahydro-5H-pyrazolo[4,3-c]pyridin-5-yl)-6,7-dihydrothieno[3,2-d]pyrimidine-5-oxide]"
3,< 0.1,"[O-][S@+]1CCc2nc(N3CCc4cc(-c5ncccn5)ccc4C3)nc(NC34CC(CO)(C3)C4)c21 [Example 24, (R)-4-((3-(hydroxymethyl)bicyclo[1.1.1]pentan-1-yl)amino)-2-(6-(pyrimidin-2-yl)-3,4-dihydroisoquinolin-2(1H)-yl)-6,7-dihydrothieno[3,2-d]pyrimidine 5-oxide]"

# Reference: patent publication US20260008788A1, “AZA-FUSED RING COMPOUND, PREPARATION METHOD THEREFOR, AND USE THEREOF IN MEDICINE” (SUZHOU ARK BIOPHARMACEUTICAL CO., LTD., priority 2022, published 2026)
